Results reported in PubChem BioAssay (NCI).
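Growth conditions: 96-well plates. Treatment: test compound, 48 hours, 5 concentrations. Analysis: linear interpolation between bracketing concentrations; unreached endpoints set to highest concentration. At the GI50, growth is halved. TGI: total growth inhibition.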

Key:
Test in all cases: NCI anticancer screen, dose series, 48 h
A549 NSCLC = system: A549 NSCLC
ACHN renal = system: ACHN renal
HT29 colon = system: HT29 colon
LXFL 529 NSCLC = system: LXFL 529 NSCLC
M19-MEL melanoma = system: M19-MEL melanoma
MOLT-4 leukemia = system: MOLT-4 leukemia
SF-295 CNS = system: SF-295 CNS
SF-539 CNS = system: SF-539 CNS
UO-31 renal = system: UO-31 renal
BT-549 breast = system: BT-549 breast

| Compound | TGI (A549 NSCLC) | TGI (ACHN renal) | TGI (HT29 colon) | TGI (LXFL 529 NSCLC) | TGI (M19-MEL melanoma) | TGI (MOLT-4 leukemia) | TGI (SF-295 CNS) | TGI (SF-539 CNS) | TGI (UO-31 renal) | GI50 (A549 NSCLC) | GI50 (ACHN renal) | GI50 (BT-549 breast) | TGI (BT-549 breast) | GI50 (HT29 colon) | GI50 (LXFL 529 NSCLC) | GI50 (M19-MEL melanoma) | GI50 (MOLT-4 leukemia) | GI50 (SF-295 CNS) | GI50 (SF-539 CNS) | GI50 (UO-31 renal) |
| --- | --- | --- | --- | --- | --- | --- | --- | --- | --- | --- | --- | --- | --- | --- | --- | --- | --- | --- | --- | --- |
| CCCCCCCCCC(=O)Oc1cccc2onc(C)c12 | > 100 µM | > 100 µM | > 100 µM | > 100 µM | > 100 µM | > 100 µM | > 100 µM | > 100 µM | > 100 µM | – | – | – | – | – | – | – | – | – | – | – |
| NC(=O)c1c[se]c(C2OC(COP(=O)(O)CP(=O)(O)OCC3OC(n4cnc5c(N)ncnc54)C(O)C3O)C(O)C2O)n1 (centres undefined) | > 100 µM | > 100 µM | > 100 µM | > 100 µM | > 100 µM | > 100 µM | > 100 µM | > 100 µM | > 100 µM | – | – | – | – | – | – | – | – | – | – | – |
| O=[N+]([O-])C1C2C=CC(C2)[C@H]1c1ccc(Cl)cc1Cl (some centres undefined) | > 100 µM | > 100 µM | 57.4 µM | > 100 µM | > 100 µM | > 100 µM | > 100 µM | > 100 µM | 67.2 µM | – | – | – | – | – | – | – | – | – | – | – |
| O=C(O)[C@@H]1CCCC[C@@H]1C(=O)N(C1CCCCC1)C1CCCCC1 | > 100 µM | > 100 µM | > 100 µM | > 100 µM | > 100 µM | > 100 µM | > 100 µM | > 100 µM | > 100 µM | – | – | – | – | – | – | – | – | – | – | – |
| CC(C)(CO)N=Cc1ccccc1[O-].CC(C)(CO)N=Cc1ccccc1[O-].[Co+2] | > 100 µM | > 100 µM | > 100 µM | > 100 µM | > 100 µM | > 100 µM | > 100 µM | > 100 µM | > 100 µM | > 100 µM | > 81.4 µM | 14.5 µM | > 63.4 µM | 100 µM | 19.2 µM | > 73.8 µM | 8.39 µM | > 100 µM | 66.5 µM | 44.9 µM |
| COc1cc2cccc(N=Cc3c(Br)ccc(OC)c3OC(C)C)c2cc1OC | > 100 µM | > 100 µM | 93.7 µM | > 100 µM | > 100 µM | > 100 µM | > 100 µM | > 100 µM | > 100 µM | – | – | – | – | – | – | – | – | – | – | – |
| Cc1nnc(N=Nc2c(O)[nH]c3ccccc23)n1N | > 100 µM | > 100 µM | > 100 µM | > 100 µM | > 100 µM | > 100 µM | > 100 µM | > 100 µM | > 100 µM | – | – | – | – | – | – | – | – | – | – | – |
| NS(=O)(=O)c1ccc(NC(=O)c2cccn3c(=O)c4ccccc4nc23)cc1 | > 100 µM | > 100 µM | > 100 µM | > 100 µM | > 100 µM | > 100 µM | > 100 µM | > 100 µM | > 100 µM | – | – | – | – | – | – | – | – | – | – | – |
| c1ccc(NC[Si]23OCCN(CCO2)CCO3)cc1 | > 100 µM | > 100 µM | > 100 µM | > 100 µM | > 100 µM | > 100 µM | > 100 µM | > 100 µM | > 100 µM | – | – | – | – | – | – | – | – | – | – | – |
| COc1nc2c(c(O)c(C)c(=O)n2OC2OC(COC(C)=O)C(OC(C)=O)C(OC(C)=O)C2OC(C)=O)c(=O)n1C (centres undefined) | > 100 µM | > 100 µM | > 100 µM | > 100 µM | > 100 µM | > 100 µM | > 100 µM | > 100 µM | > 100 µM | – | – | – | – | – | – | – | – | – | – | – |
| COc1ccc(CC2=NCCc3cc(OC)c(OC)cc32)cc1Br | > 100 µM | > 100 µM | > 100 µM | > 100 µM | > 100 µM | 58.6 µM | 30.4 µM | > 100 µM | > 100 µM | – | – | – | – | – | – | – | – | – | – | – |
| C=CC1=CC(C)C[C@]1(O)C(=O)OC (some centres undefined) | – | – | – | – | – | – | – | > 100 µM | – | > 100 µM | > 100 µM | – | – | > 100 µM | > 100 µM | > 100 µM | > 100 µM | > 100 µM | – | > 100 µM |
